This note sets out measurements from PMC6576746, “Rational discovery of dual-indication multi-target PDE/Kinase inhibitor for precision anti-cancer therapy using structural systems pharmacology” (PLoS Computational Biology, 2019).

SMILES strings stand for the structures.

Assay in all cases: biochemical
Common to all, as to design: DiscoverX KinomeScan competition binding assay across human kinases; per cent of control at 10 and 100 uM

One test deals with T1, RIPK5 (Homo sapiens, UniProt Q6XUX3).
T1 construct: gene DSTYK
The note with it: competition binding, % of control; read-out: Percent Control (100 uM Levosimendan). The protocol: (§1) To validate our computational predictions, we employed a competition binding assay to detect the binding of levosimendan to 425 human kinases as well as its dose-response curve to RIOK1. The proprietary KinomeScan assay was performed by DiscoverX (Fremont, California, USA). The tests were performed at 10 μM and 100 μM concentrations of levosimendan, respectively. Assay results were reported as %control, calculated as follows: %control=(TestCompoundSignal−PositiveControlSignal)/(NegativeControlSignal−PositiveControlSignal)×100 KinomeScan assay across 452 human kinases verified our computational prediction (S1 Table). RIOK1 is one of the strongest inhibited kinases by levosimendan. The percentage control of RIOK1 is 15.0 and 0.0 under the treatment of 10 μM and 100 μM of levosimendan, respectively. […] The percentage controls of five kinases: FLT3, MAP2K5, PIP5K1A, GAK, and KIT are less than 30.0 under the treatment of both 10 μM and 100 μM of levosimendan. Both FLT3 and KIT are tyrosine protein kinases. Their inhibitors have recently been approved for the treatment of Acute Myeloid Leukemia and other types of cancers, but a combination therapy is needed to overcome rapidly emerged drug resistance, thus improve patients’ drug responses. Other kinases inhibited by levosimendan belong to serine/threonine protein kinase family (RIOK1, RIOK3, GAK, and MAP2K5) and lipid kinase family (PIP5K1A). […] As a result, levosimendan may modulate different cancer pathways from those by the tyrosine protein kinase inhibitors, and it could be a novel lead compound for a new anti-cancer therapy to overcome drug resistance of existing drugs or to target different types of cancers through polypharmacology or drug combination.

The target of a further test is T2, CDK4-cyclinD1 (Homo sapiens, UniProt P11802).
T2 construct: cyclinD1
T2 sequence (P11802 whole entry): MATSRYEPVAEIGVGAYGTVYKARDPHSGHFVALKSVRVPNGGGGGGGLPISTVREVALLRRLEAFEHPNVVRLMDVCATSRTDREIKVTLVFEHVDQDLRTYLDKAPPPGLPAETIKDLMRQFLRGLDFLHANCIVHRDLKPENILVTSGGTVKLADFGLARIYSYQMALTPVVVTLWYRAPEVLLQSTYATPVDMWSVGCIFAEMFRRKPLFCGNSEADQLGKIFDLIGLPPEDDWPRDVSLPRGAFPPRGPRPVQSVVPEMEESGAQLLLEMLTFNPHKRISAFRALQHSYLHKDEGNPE
T2 sequence (P24385 whole entry partner): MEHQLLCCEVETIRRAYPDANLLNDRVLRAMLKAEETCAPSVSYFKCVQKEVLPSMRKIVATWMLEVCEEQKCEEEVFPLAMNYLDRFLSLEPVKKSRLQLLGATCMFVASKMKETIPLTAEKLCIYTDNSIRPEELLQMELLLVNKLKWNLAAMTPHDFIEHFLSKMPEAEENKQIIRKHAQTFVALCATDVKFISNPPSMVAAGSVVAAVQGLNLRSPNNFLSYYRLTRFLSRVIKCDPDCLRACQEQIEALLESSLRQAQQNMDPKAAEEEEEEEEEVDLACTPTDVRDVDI
As to conditions: competition binding, % of control; read-out: Percent Control (100 uM Levosimendan). The procedure: as §1

The target in a further test is CDK4 (Homo sapiens, UniProt P11802). As to conditions: competition binding, % of control; read-out: Percent Control (100 uM Levosimendan). The protocol: as §1
CDK4, sequence (P11802 whole entry): as the sequence (P11802 whole entry) above
A further test concerns the target MYO3B (Homo sapiens, UniProt Q8WXR4). As to conditions: competition binding, % of control; read-out: Percent Control (100 uM Levosimendan). The procedure:
as §1

In the next test the target is BMPR2 (Homo sapiens, UniProt Q13873). The note with it: competition binding, % of control; read-out: Percent Control (100 uM Levosimendan). The procedure: as §1
For the next test, the target named is MARK2 (Homo sapiens, UniProt Q7KZI7). The note with it: competition binding, % of control; read-out: Percent Control (100 uM Levosimendan). The protocol: as §1
MARK2, sequence (Q7KZI7 whole entry): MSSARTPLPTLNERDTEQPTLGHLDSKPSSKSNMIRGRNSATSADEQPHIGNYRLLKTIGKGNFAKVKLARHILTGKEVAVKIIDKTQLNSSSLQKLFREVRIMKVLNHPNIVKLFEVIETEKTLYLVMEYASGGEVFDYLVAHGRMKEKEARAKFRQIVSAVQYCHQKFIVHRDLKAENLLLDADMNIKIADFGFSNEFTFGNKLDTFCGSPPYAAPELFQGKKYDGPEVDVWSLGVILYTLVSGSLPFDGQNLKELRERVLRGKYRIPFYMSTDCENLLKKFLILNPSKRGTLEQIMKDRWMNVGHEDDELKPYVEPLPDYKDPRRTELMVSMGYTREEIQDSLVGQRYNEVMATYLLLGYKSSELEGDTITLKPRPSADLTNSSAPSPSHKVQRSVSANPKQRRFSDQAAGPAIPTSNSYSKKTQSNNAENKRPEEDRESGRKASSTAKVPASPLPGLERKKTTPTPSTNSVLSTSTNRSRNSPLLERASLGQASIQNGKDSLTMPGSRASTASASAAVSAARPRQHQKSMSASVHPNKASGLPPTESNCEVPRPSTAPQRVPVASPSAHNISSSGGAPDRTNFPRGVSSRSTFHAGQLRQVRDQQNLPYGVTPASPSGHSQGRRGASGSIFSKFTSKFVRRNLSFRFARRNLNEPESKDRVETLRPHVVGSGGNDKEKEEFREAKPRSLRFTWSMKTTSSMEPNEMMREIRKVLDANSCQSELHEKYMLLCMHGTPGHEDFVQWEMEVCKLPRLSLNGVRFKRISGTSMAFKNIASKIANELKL
In test [1] the target is T3, ABL1(F317I)-nonphosphorylated (Homo sapiens, UniProt P00519, F317I).
T3 construct: nonphosphorylated
As to conditions: competition binding, % of control; read-out: Percent Control (100 uM Levosimendan). The protocol:
as §1

A further test addresses RIPK1 (Homo sapiens, UniProt Q13546). As to conditions: competition binding, % of control; read-out: Percent Control (100 uM Levosimendan). The protocol: as §1
A further test concerns the target CSK (Homo sapiens, UniProt P41240). The note with it: competition binding, % of control; read-out: Percent Control (100 uM Levosimendan). The protocol:
as §1

The target of the next test is CLK1 (Homo sapiens, UniProt P49759). As to conditions: competition binding, % of control; read-out: Percent Control (100 uM Levosimendan). The procedure: as §1
CLK1, sequence (P49759 whole entry): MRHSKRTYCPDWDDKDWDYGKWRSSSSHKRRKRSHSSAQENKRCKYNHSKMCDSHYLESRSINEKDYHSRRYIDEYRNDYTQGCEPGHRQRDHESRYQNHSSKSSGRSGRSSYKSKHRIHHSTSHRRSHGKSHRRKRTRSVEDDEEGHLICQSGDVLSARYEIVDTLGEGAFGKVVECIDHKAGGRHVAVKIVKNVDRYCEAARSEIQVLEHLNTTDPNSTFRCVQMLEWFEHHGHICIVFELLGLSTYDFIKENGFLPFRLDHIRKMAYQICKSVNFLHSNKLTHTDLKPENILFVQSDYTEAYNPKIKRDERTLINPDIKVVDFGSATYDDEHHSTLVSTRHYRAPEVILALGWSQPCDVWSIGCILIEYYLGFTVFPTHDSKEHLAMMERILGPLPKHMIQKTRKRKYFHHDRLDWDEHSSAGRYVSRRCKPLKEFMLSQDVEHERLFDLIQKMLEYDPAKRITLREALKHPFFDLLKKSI
The target in another test is CAMK4 (Homo sapiens, UniProt Q16566). As to conditions: competition binding, % of control; read-out: Percent Control (100 uM Levosimendan). The procedure: as §1
CAMK4, sequence (Q16566 whole entry): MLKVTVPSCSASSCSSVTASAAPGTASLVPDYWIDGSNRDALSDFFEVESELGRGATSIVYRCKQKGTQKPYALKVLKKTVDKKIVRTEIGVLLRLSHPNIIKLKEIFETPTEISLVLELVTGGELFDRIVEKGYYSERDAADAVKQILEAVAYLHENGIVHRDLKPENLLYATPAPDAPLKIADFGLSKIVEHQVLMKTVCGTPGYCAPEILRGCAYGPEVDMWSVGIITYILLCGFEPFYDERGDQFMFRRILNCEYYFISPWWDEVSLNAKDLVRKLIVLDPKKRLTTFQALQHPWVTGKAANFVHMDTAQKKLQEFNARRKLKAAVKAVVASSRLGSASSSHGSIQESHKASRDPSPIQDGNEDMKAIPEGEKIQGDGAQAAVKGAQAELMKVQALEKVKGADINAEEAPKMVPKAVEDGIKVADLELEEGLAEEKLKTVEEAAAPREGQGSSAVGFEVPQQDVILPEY
Another test addresses MUSK (Homo sapiens, UniProt O15146). As to conditions: competition binding, % of control; read-out: Percent Control (100 uM Levosimendan). The procedure: as §1
For the next test, the target named is EPHA5 (Homo sapiens, UniProt P54756). The note with it: competition binding, % of control; read-out: Percent Control (100 uM Levosimendan). The procedure:
as §1

In the next test the target is CDKL5 (Homo sapiens, UniProt O76039). The note with it: competition binding, % of control; read-out: Percent Control (100 uM Levosimendan). The procedure:
as §1

In another test the target is ROS1 (Homo sapiens, UniProt P08922). The note with it: competition binding, % of control; read-out: Percent Control (100 uM Levosimendan). The procedure:
as §1

The target of the next test is PKN1 (Homo sapiens, UniProt Q16512). As to conditions: competition binding, % of control; read-out: Percent Control (100 uM Levosimendan). The protocol:
as §1

Another test has as its target AKT3 (Homo sapiens, UniProt Q9Y243). As to conditions: competition binding, % of control. The procedure:
as §1

The next test has as its target FGFR4 (Homo sapiens, UniProt P22455). As to conditions: competition binding, % of control; read-out: Percent Control (100 uM Levosimendan). The protocol:
as §1

Another test has as its target T4, PCTK2 (Homo sapiens, UniProt Q00537).
T4 construct: gene CDK17
As to conditions: competition binding, % of control; read-out: Percent Control (100 uM Levosimendan). The procedure:
as §1

AKT3, sequence (Q9Y243 whole entry): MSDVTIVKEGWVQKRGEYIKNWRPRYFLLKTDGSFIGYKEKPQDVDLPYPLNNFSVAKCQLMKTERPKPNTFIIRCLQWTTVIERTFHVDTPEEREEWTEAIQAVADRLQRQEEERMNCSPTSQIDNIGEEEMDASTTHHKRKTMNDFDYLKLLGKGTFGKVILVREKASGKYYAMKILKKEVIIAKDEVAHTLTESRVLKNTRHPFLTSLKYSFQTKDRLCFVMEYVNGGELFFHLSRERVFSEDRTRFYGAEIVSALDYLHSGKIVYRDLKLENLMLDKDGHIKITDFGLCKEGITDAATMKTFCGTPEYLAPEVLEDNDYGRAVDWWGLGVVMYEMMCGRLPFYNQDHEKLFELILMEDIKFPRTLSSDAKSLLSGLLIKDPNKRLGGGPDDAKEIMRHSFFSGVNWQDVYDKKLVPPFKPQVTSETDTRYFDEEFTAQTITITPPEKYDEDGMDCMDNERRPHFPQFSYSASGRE
T4 sequence (Q00537 whole entry): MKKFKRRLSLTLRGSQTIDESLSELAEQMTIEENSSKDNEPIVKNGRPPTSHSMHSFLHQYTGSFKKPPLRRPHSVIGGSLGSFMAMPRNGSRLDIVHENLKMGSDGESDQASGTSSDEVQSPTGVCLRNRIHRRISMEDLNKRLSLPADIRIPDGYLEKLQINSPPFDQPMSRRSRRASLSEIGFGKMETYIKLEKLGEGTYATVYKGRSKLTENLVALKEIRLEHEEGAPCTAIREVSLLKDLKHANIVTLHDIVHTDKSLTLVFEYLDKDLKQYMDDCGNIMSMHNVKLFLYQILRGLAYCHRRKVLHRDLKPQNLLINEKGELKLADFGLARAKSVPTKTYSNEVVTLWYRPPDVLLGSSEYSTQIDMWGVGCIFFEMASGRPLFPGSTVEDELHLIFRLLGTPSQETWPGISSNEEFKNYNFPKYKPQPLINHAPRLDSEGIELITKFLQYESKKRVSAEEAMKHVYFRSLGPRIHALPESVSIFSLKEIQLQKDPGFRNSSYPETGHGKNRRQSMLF
CSK, sequence (P41240 whole entry): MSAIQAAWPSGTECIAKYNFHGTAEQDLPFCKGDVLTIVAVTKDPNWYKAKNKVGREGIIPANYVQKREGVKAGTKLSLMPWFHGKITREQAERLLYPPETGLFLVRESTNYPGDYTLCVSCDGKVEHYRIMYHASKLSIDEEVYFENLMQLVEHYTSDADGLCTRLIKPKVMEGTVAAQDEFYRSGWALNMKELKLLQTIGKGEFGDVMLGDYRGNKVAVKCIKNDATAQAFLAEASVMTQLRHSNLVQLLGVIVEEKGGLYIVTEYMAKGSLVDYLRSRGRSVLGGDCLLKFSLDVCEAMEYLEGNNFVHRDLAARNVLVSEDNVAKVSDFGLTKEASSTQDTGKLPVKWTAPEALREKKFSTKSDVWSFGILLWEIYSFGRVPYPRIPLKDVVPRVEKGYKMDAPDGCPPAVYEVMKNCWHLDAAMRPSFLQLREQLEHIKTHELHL
EPHA5, sequence (P54756 whole entry): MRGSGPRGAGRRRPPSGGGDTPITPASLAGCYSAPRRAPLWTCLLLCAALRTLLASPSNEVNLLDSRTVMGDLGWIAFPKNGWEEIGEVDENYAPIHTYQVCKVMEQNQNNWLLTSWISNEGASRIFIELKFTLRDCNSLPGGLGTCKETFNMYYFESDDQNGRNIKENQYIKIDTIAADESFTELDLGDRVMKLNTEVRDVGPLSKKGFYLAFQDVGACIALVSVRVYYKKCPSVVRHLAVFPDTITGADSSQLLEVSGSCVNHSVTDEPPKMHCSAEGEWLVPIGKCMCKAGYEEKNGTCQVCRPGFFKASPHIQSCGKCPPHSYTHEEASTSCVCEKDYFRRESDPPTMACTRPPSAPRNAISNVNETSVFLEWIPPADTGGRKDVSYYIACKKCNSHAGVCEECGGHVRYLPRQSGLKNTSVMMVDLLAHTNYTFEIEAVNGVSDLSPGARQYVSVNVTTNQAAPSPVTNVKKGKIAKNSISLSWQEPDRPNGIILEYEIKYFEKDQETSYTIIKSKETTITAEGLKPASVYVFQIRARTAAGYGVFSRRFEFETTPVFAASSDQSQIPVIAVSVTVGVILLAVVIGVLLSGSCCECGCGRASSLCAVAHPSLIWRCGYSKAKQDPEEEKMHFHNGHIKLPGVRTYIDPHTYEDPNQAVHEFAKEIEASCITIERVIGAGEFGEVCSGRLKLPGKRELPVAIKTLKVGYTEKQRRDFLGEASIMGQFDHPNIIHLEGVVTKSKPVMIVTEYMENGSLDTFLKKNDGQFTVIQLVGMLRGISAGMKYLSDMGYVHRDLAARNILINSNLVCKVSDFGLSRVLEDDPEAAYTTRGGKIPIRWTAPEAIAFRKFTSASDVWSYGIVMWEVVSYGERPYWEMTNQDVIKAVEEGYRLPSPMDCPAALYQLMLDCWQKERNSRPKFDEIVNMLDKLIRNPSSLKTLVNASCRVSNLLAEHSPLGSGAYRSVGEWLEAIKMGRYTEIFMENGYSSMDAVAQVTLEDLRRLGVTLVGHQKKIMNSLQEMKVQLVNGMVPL

As for `C[C@@H]1CC(=O)NN=C1c1ccc(NN=C(C#N)C#N)cc1` [levosimendan], the remaining binding at 100 µM on RIPK5 stood at 60%; at CDK4-cyclinD1, 84%; on CDK4, 100%; on MYO3B, 100%; on BMPR2 it was 100%; on MARK2, 95%. For the same compound, the remaining binding at 100 µM in test [1] is 100%; on RIPK1, 73%; at CSK, 76%; on CLK1 it was 89%; at CAMK4 it was 100%; at MUSK, 100%. The remaining binding at 100 µM at EPHA5 is 100%; on CDKL5 it was 94%; at ROS1, 62%; on PKN1, 100%; at AKT3 (read-out: Percent Control (100 uM Levosimendan)), 37%; on FGFR4 it was 92%. The remaining binding at 100 µM on PCTK2 worked out at 100%. The remaining binding at 10 µM on AKT3 (read-out: Percent Control (10 uM Levosimendan)) amounted to 96%.
